The data set can be described thus: Solubility of NAVI in COA ionic liquid. The class given is physicochemical. The source says: Skin melanoma remains one of the fastest-growing and the most common types of cancer in the United States and worldwide. Although primary melanoma can be removed by surgery if detected, advanced metastatic melanoma cannot be managed by surgery alone and thus an alternative and effective therapeutic approach is required. Direct local application of anti-cancer drugs may effectively treat topical cancerous skin lesions when surgery is not feasible. However, these therapies are severely limited due to the protective nature of the skin and the fact that current topical treatments may cause skin irritation, burning, light sensitivity, scaling, and inflammation. To treat early-stage melanoma, we have developed a topical formulation of Navitoclax (NAVI), a BCL-2 inhibitor that upregulates apoptosis, in association with an ionic liquid composed of Choline Octanoate (COA) at a molar ratio of 1:1. NAVI is a small hydrophobic molecule that solubilizes at 20% (w/v) when dissolved into 50% (DW v/v) COA. […] Therefore, COA-mediated topical delivery of NAVI enhanced transportation through the skin barrier and held the drug in the deeper skin layers for an extended period compared to the control.
The main challenges in treating fibrosis with chemotherapeutics are epidermal layer penetration, the appropriate concentration, and drug retention within the layer for a more extended period. […]

This note sets out measurements from US20230165806A1, “Topical Therapy of Skin Fibrosis and Melanoma” (Board of Regents, The University of Texas System, priority 2021, published 2023).

As for `CC1(C)CCC(c2ccc(Cl)cc2)=C(CN2CCN(c3ccc(C(=O)NS(=O)(=O)c4ccc(N[C@H](CCN5CCOCC5)CSc5ccccc5)c(S(=O)(=O)C(F)(F)F)c4)cc3)CC2)C1` [NAVI, Navitoclax], the solubility (choline octanoate (COA) ionic liquid, aqueous with cosolvent or surfactant or cyclodextrin, with COA, read-out: solubility of NAVI increased by COA) is no more than 150 µg/mL. Moreover, the “solubility of NAVI” value (dissolved into 50% (DW v/v) COA) is recorded as 20 % (w/v).

The term solubility denotes the dissolved amount per volume that the medium holds.
